# Test results from ChEMBL document CHEMBL1132103, “Acylcarnitine analogues as topical, microbicidal spermicides” (1999).
# Calls of active or inactive are those of the source. The rule behind the calls is not given here.
# Experiments:
# [1] = tested on: Human immunodeficiency virus 1; assay: In vitro inhibition of HIV-1 (RF strain) using cell-free inactivation assay at concentration of 0.32 mg/mL; assay type: functional, organism-based
# [2] = tested on: Candida albicans; assay: Minimum inhibitory concentration required for growth inhibition of Candida albicans; assay type: functional
# [3] = tested on: Human immunodeficiency virus 1; assay: In vitro inhibition of HIV-1 (RF strain) using cell-free inactivation assay at concentration of 3.2 mg/mL; assay type: functional, organism-based
# [4] = tested on: Human immunodeficiency virus 1; assay: In vitro inhibition of HIV-1 (RF strain) using cell-free inactivation assay at concentration of 10 mg/mL; assay type: functional, organism-based
# [5] = tested on: Human immunodeficiency virus 1; assay: In vitro inhibition of HIV-1 (RF strain) using cell-free inactivation assay at concentration of 0.032 mg/mL; NA: Not active; assay type: functional, organism-based
# [6] = species on record: Homo sapiens; assay: In vitro spermicidal activity using spermicidal dilution at 4.8 +/- 0.5 mg/mL in the Sander-Cramer test; assay type: functional; settings: read-out: MEC
# [7] = tested on: Human immunodeficiency virus 1; assay: In vitro inhibition of HIV-1 (RF strain) using cell-free inactivation assay at concentration of 1.0 mg/mL; assay type: functional, organism-based
# [8] = tested on: Human immunodeficiency virus 1; assay: In vitro inhibition of HIV-1 (RF strain) using cell-free inactivation assay at concentration of 0.1 mg/mL; NA: Not active; assay type: functional, organism-based
# [9] = species on record: Homo sapiens; assay: In vitro spermicidal activity using spermicidal dilution at 102.4 +/- 13.5 mg/mL in the Sander-Cramer test; assay type: functional; settings: read-out: MEC
# [10] = tested on: Human immunodeficiency virus 1; assay: In vitro inhibition of HIV-1 (RF strain) using cell-free inactivation assay at concentration of 0.1 mg/mL; assay type: functional, organism-based
# [11] = tested on: Human immunodeficiency virus 1; assay: In vitro inhibition of HIV-1 (RF strain) using cell-free inactivation assay at concentration of 0.032 mg/mL; assay type: functional, organism-based
# [12] = species on record: Homo sapiens; assay: In vitro spermicidal activity using spermicidal dilution at 7.6 +/- 0.4 mg/mL in the Sander-Cramer test; assay type: functional; settings: read-out: MEC
# [13] = species on record: Homo sapiens; assay: In vitro spermicidal activity using spermicidal dilution at 48.0 +/-5.1 mg/mL in the Sander-Cramer test; assay type: functional; settings: read-out: MEC
# [14] = species on record: Homo sapiens; assay: In vitro spermicidal activity using spermicidal dilution at 27.2 +/- 2.3 mg/mL in the Sander-Cramer test; assay type: functional; settings: read-out: MEC
# [15] = species on record: Homo sapiens; assay: In vitro spermicidal activity using spermicidal dilution at 134.4 +/- 14.2 mg/mL in the Sander-Cramer test; assay type: functional; settings: read-out: MEC
Structure (SMILES),MIC [2] [µg/mL],Activity [1],Activity [3],Activity [4],Activity [5],minimal effective concentration [6] [µg/mL],Activity [7],Activity [8],minimal effective concentration [9] [µg/mL],Activity [10],Activity [11],minimal effective concentration [12] [µg/mL],minimal effective concentration [13] [µg/mL],minimal effective concentration [14] [µg/mL],minimal effective concentration [15] [µg/mL]
CCCCCCCCCC[C@@]1(O)C[N+](C)(C)C[C@@H](CC(=O)[O-])O1,> 100,0.8,2.8,> 4,inactive,2300,1,inactive,–,–,–,–,–,–,–
CCCCCCCCCCC[C@@]1(O)C[N+](C)(C)C[C@@H](CC(=O)[O-])O1,> 100,0.8,2.7,4.7,inactive,–,2,inactive,–,–,–,1400,–,–,–
CCCCCCCCCCCCC[C@@]1(O)C[N+](C)(C)C[C@@H](CC(=O)[O-])O1,40,2.7,3.5,3.5,–,–,3.3,–,–,1.5,0.5,–,235,–,–
CCCCCCCCCCCCCCC[C@@]1(O)C[N+](C)(C)C[C@@H](CC(=O)[O-])O1 [HEMIACYLCARNITINIUM],2,2.7,3.8,> 4,–,–,3.2,–,–,1.5,0.3,–,–,–,109

# More lines, in order of falling MIC [2], values ahead:
MIC [2] [µg/mL],Structure (SMILES),Activity [1],Activity [3],Activity [4],Activity [5],minimal effective concentration [6] [µg/mL],Activity [7],Activity [8],minimal effective concentration [9] [µg/mL],Activity [10],Activity [11],minimal effective concentration [12] [µg/mL],minimal effective concentration [13] [µg/mL],minimal effective concentration [14] [µg/mL],minimal effective concentration [15] [µg/mL]
80,CCCCCCCCCCCC[C@@]1(O)C[N+](C)(C)C[C@@H](CC(=O)[O-])O1,2,> 3.5,> 4,–,–,2.8,–,–,0.3,0,–,–,407,–
10,CCCCCCCCCCCCCC[C@@]1(O)C[N+](C)(C)C[C@@H](CC(=O)[O-])O1,2.8,> 4,> 4,–,–,3.5,–,121,1.5,0.5,–,–,–,–
